In paper PMC6848086, “Light on the cell cycle of the non-photosynthetic bacterium Ramlibacter tataouinensis” (Scientific Reports, 2019):

Target: T1, RtBphP2 (Ramlibacter tataouinensis, UniProt F5Y6C4)
T1 construct: gene Rta_28950; full-length; His6 tag (pBAD/HisB); co-expressed with Bradyrhizobium sp; ORS278 heme oxygenase in E. coli TOP10; dimer
Assay: gel electrophoresis with zinc fluorescence; absorption spectra of purified holoprotein
Assay type: binding
Details: covalent; chromophore formed in E. coli by co-expressed heme oxygenase

T1 sequence (F5Y6C4 entry or part of it): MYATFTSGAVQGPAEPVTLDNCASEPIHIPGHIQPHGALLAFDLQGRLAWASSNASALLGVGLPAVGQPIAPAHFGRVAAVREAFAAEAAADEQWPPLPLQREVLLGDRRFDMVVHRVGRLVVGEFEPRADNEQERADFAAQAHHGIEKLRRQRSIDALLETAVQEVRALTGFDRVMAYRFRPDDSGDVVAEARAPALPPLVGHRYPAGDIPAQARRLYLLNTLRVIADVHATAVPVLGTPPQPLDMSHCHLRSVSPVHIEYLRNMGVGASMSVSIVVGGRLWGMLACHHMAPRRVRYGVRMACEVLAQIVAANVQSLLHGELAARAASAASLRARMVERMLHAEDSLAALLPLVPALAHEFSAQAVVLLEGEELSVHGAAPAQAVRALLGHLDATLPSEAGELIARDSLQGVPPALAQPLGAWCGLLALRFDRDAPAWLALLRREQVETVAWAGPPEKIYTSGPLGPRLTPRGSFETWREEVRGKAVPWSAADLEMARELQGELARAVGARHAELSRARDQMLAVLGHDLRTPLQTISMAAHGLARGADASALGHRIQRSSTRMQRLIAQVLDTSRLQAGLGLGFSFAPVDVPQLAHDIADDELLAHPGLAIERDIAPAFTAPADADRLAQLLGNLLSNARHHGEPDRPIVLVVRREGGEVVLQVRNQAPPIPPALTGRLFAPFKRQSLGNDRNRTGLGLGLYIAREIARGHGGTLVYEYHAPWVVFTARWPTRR

In the case of `C=CC1=C(C)/C(=C/C2=NC(=C\c3[nH]c(/C=C4\NC(=O)C(C)=C4C=C)c(C)c3CCC(=O)O)/C(CCC(=O)O)=C2C)NC1=O` [biliverdin], the “gel electrophoresis with zinc fluorescence; absorption spectra of purified holop” value is reported as “zinc fluorescence demonstrated that the biliverdin (BV) is covalently bound in both proteins”.
